Starred links: 1 amine or outer side, 2 acyl side, 3 side chain; linkers in the order of their positions; H or OH if unused. Positions of bridges follow the written chain, without caps; N, C: chain ends. Non-standard residues stand in square brackets, D forms with d. Residues, ends and D or L forms follow the SMILES beside them. Chains are numbered I, II in the order given. Actinocin(9to1) = Cc1c2oc3c(C)ccc(C(=O)[*:1])c3nc-2c(C(=O)[*:2])c(N)c1=O; NMeV = CN[C@H](C(=O)O)C(C)C; Sar = CNCC(=O)O
System: MnSOD mRNA in A549 cells
Assay: Effect on MnSOD mRNA induction by thioredoxin in A549 cells (Northern blot)
Format: cell-based, human
Method: Reduced thioredoxin (recombinant, E. coli; Promega) was prepared by treating 1 mM thioredoxin with 2 mM dithiothreitol (DTT) for 20 min at room temperature followed by removal of excess DTT using a G-25 spin column. A549 cells were grown in F-12K medium with 10% serum. Confluent monolayers were treated with oxidized thioredoxin (3 or 7 μM), with and without the thioredoxin reducing system [thioredoxin reductase (0.1 μM)+NADPH (2 mM)]. Incubations were for 16 hours. Total RNA was isolated from cells by guanidine isothiocyanate lysis and cesium chloride centrifugation of the lysate (147,000× g, 20-25° C.) in an ultracentrifuge (Beckman) by the methods of Sambrook et al., ibid. Total RNA was quantified spectrophotometrically.
Twenty micrograms of RNA was resolved by electrophoresis in 1% agarose, 2.5 M formaldehyde gel in a buffer containing 20 mM MOPS and 1 mM EDTA (pH 7.4). RNA was transferred to nitrocellulose and blots were prehybridized 2-12 hours in 50% formamide, 0.75 M sodium chloride, 0.075 M sodium citrate (pH 7.0), 5× Denhardt's solution, 50 μg/ml salmon sperm DNA, and 0.1% SDS at 42° C. Blots were hybridized with cDNA for MnSOD labeled to a specific activity of 2-7×10^7 cpm using ^32 P-γ CTP (ICN) in hybridization solution at 42° C. overnight and then were washed in 0.3 M sodium chloride, 0.03 M sodium citrate, 0.1% SDS at 42° C. Autoradiographs were made by exposing blots to x-ray film (Kodak) at -70° C. with intensifying screens. Blots were exposed to phosphor-imager screens (Molecular Dynamics) and densitometry was performed with a Macintosh computer using MD Image Quant Version 3.35.
To evaluate the effect of oxidation of TRX-SH2 on MnSOD induction, A549 cells were incubated with diamide (2 mM; 30 min) or CDNB (100 μM; 45 min). After incubation, cells were washed and fresh medium added. The cells next were incubated with oxidized thioredoxin (28 μM; 6 h) and then processed for Northern analysis as described in Example 2.
A549 cells were incubated with actinomycin D ([…]), a transcriptional inhibitor, or cyclohexamide (10 μg/ml), a translation inhibitor, for 1 hour followed by addition of thioredoxin (28 μM) and further incubation for a period of 16 hours. mRNA was quantified as previously described.

C[C@@H]1C[C@@H]([C@H](O)CC2CC(=O)NC(=O)C2)C(=O)[C@@H](C)C1 [Cycloheximide, cycloheximide] was tested, and the “effect on thioredoxin-mediated increase in MnSOD mRNA” value (cyclohexamide 10 μg/ml, 1 hour, then thioredoxin 28 μM, 16 hours) was “potentiated the thioredoxin-mediated increase in MnSOD mRNA”.
For CN(C)C(=O)/N=N/C(=O)N(C)C [diamide], the “effect on elevation of MnSOD mRNA by thioredoxin” value (diamide 2 mM, 30 min, washed, then oxidized thioredoxin 28 μM, 6 h) was “prevented elevation of MnSOD mRNA by thioredoxin”.
In the case of O=[N+]([O-])c1ccc(Cl)c([N+](=O)[O-])c1 [CDNB], the “effect on increased expression of MnSOD mRNA by thioredoxin” value (CDNB 100 μM, 45 min, washed, then oxidized thioredoxin 28 μM, 6 h) is reported as “prevented increased expression of MnSOD mRNA by thioredoxin”.
With Cc1c2oc3c(C)ccc(C(=O)N[C@@H]4C(=O)N[C@H](C(C)C)C(=O)N5CCC[C@H]5C(=O)N(C)CC(=O)N(C)[C@@H](C(C)C)C(=O)O[C@@H]4C)c3nc-2c(C(=O)N[C@@H]2C(=O)N[C@H](C(C)C)C(=O)N3CCC[C@H]3C(=O)N(C)CC(=O)N(C)[C@@H](C(C)C)C(=O)O[C@@H]2C)c(N)c1=O [actinomycin D] (I: T[dV]P[Sar][NMeV] / II: T[dV]P[Sar][NMeV]; ester I:1-I:C, II:1-II:C; linker I:N-II:N via Actinocin(9to1)) the “effect on production of MnSOD mRNA” value (actinomycin D, 1 hour, then thioredoxin 28 μM, 16 hours) was “inhibited”.

Reference: patent US5985261A, “Use of thioredoxin-like molecules for induction of MnSOD to treat oxidative damage” (National Jewish Medical and Research Center, priority 1997, dated 1999)
